The source of these data is patent US12447137B2, “Composition for prevention, amelioration, or treatment of cancer” (EWHA UNIVERSITY—INDUSTRY COLLABORATION FOUNDATION, priority 2019, dated 2025).

In one experiment the test system is 4T1 cell line. The experiment can be described thus: Cell viability assay (WST-1). It is filed as cell-based. The conditions noted are these: Mus musculus. As to the method: (§1) [4-1-1] The breast cancer cell line of Experimental Method 1 was treated with 5-aminoimidazole-4-carboxamide ribonucleotide (AICAR) (which is not the compound of Production Example 6) or the compound of Production Example 6 at a concentration of 0 to 30 μM, and then cultured for 24 hours, 48 hours and 72 hours. Thereafter, the cultured cells were treated with WST-1 reagent, and then the absorbance at a wavelength of 450 nm was measured. Here, the WST-1 reagent allows the cell viability to be measured by changing the color of the culture medium depending on the level of the mitochondrial dehydrogenase present in the cell.
(§2) [4-1-2] The breast cancer cell line 4T1, BT549 or MDA-MB-231 of Experimental Method 1 was treated with each of the compound of Production Example 6 and 13 compounds, including the compounds of Production Examples 1 to 5 and 8 to 15 having a similar structure (YE-01, 02, 03, 04, 05, 08, 09, 10, 11, 12, 13, 14 and 15), at a concentration of 0 to 50 μM, and then cultured for 24 hours. Each of three types of gastric cancer cell lines, brain cancer cell lines and pancreatic cancer cell lines was treated with the compound of Production Example 6 or the compound of Production Example 8 having a similar structure at a concentration of 0 to 50 μM, and then cultured for 24 hours. Thereafter, the cultured cells were treated with WST-1 reagent according to the manufacturer's instruction, and after a certain time, the absorbance at a wavelength of 450 nm was measured. Here, the WST-1 reagent allows the cell viability to be measured by changing the color of the culture medium depending on the level of the mitochondrial dehydrogenase present in the cell.

The subject of another experiment is BT549 cell line. The experiment in a line: Cell viability assay (WST-1). Format: cell-based. The conditions noted are these: Homo sapiens. On the procedure:
as §1, §2

Another experiment deals with MDA-MB-231 cell line. The experiment in a line: Cell viability assay (WST-1). Format: cell-based. The conditions noted are these: Homo sapiens, MDA-MB-231, 24 h, read-out: cancer cell viability inhibited. As to the method: as §1, §2
Experiment [1] relates to p-AMPK (Thr172). The experiment in a line: AMPK activation by p-AMPK (Thr172) Western blot in gastric cancer cell lines. It is filed as cell-based, human. The conditions noted are these: 10 μM, 12 hours, compared to untreated group. As to the method:
(§3) [3-2] The three breast cancer cell lines (4T1, BT549, and MDA-MB-231) of Experimental Method 1 were treated with each of the compound of Production Example 6 and 13 compounds, including the compounds of Production Examples 1 to 5 and 8 to 15 having a similar structure (YE-01, 02, 03, 04, 05, 08, 09, 10, 11, 12, 13, 14 and 15), at a concentration of 10 μM, and then cultured for 24 hours. In addition, each of two types of gastric cancer cell lines, brain cancer cell lines and pancreatic cancer cell lines was treated with the compound of Production Example 6 or the compound of Production Example 8 having a similar structure at a concentration of 10 μM and then cultured for 12 hours. Thereafter, the cells were harvested and lysed in RIPA buffer, and the protein was electrophoresed by SDS-PAGE, and then the expression level of the protein was analyzed using antibodies specific for AMPK and phospho-AMPK (Thr172). GAPDH or β-actin was used as a loading control for protein quantification.

Experiment [2] relates to p-AMPK (Thr172). The experiment in a line: AMPK activation by p-AMPK (Thr172) Western blot in brain cancer cell lines. Format: cell-based, human. The conditions noted are these: 10 μM, 12 hours, compared to untreated group. On the procedure: as §3

Read-outs that look alike come from different tables or passages of the source. Bounds are passed on as bounds.

Consider `COc1ccc(OC)c(/C=C/C(=O)c2ccc(NS(=O)(=O)c3ccc(Cl)cc3)cc2)c1` [Production Example 6, (E)-4-chloro-N-(4-(3-(2,5-dimethoxyphenyl)acryloyl)phenyl)benzenesulfonamide], for which the cytotoxicity at 10 µM in the experiment on 4T1 cell line (4T1, 24 h, read-out: cancer cell viability inhibited) was at least 50%; in the experiment with 4T1 cell line (4T1, read-out: cell viability inhibited), at least 50%; with BT549 cell line (BT-549, 24 h, read-out: cancer cell viability inhibited) it was at least 50%; in the experiment on BT549 cell line (BT-549, read-out: cell viability inhibited), at least 50%; in the experiment on MDA-MB-231 cell line, at least 50%. In addition, the “expression of p-AMPK” value in the experiment on p-AMPK (Thr172) [1] and in the experiment on p-AMPK (Thr172) [2] was “increased” throughout.
